The results in this text go back to patent US9174916B2, “Compounds and uses thereof for treating inflammation and modulating immune responses” (PURAPHARM COMPANY LIMITED, priority 2009, dated 2015).

Molecules are shown by their SMILES.

Format in all cases: cell-based, human
One test deals with TNF-α. In words: LPS-induced TNF-α production in primary blood macrophages, ELISA of culture supernatants. Particulars: for inhibition of LPS-induced TNF-α protein production: 140 μM B22EES1-8-3 for 24 hr, mean±S.D. of 6 experiments. The protocol: FIGS. 5A-5B show inhibition of LPS-induced TNF-α production by B22EES1-8-3 and dexamethasone. PBMac were incubated with (A) 140 μM B22EES1-8-3 or (B) 1.3 or 5.1 μM dexamethasone (Dex) for 24 hr prior to the addition of 1 ng/mL and 10 ng/mL LPS for another 24 hr. The culture supernatants were collected and assayed for TNF-α by ELISA. The results shown were the mean values±standard derivation (S.D.) of 6 independent experiments, with cells obtained from different donors. * P<0.05, compared with the corresponding control.
Human peripheral blood monocytic cells (PBMC) were isolated from the buffy coat of healthy donor blood supplied by Hong Kong Red Cross by Ficoll-Paque (Amersham Pharmacia Biotech, Piscataway, N.J.) density gradient centrifugation as described in our previous reports^14,15,34. In brief, the buffy coat was spun at 3000 rotations per min (rpm) for 15 min to separate the blood cells and the plasma. The heat inactivated serum was filtered for future use.
The adherent monocytic cells were detached and seeded onto tissue culture plates and incubated for another 7-14 days in order to differentiate the primary blood monocytic cells to primary blood macrophages (PBMac).
Culture supernatants of the LPS-treated PBMac, with or without B22EES1-8-3 pretreatment, were collected at different time intervals and stored at −70° C. The levels of the secreted TNF-α were measured by ELISA kits specific for the cytokine (R&D system, Minneapolis, Minn.).
To confirm the activities of B8-3 in suppressing TNF-α production, B8-3 was incubated with PBMac for 24 hr prior the addition of LPS at concentrations of 1 ng/mL and 10 ng/mL for 24 hr. The culture supernatants were collected and measured by ELISA for the level of secreted TNF-α.
To further compare the efficiency of B8-3 with existing drugs, dexamethasone, a potent immunosuppressive corticosteroid, was used as a prototype. PBMac were treated with dexamethasone for 24 hr prior to the addition of LPS at concentrations of 1 ng/mL and 10 ng/mL for 24 hr.

The test system of the next test is ERK1/2. In words: LPS-induced phosphorylation of ERK1/2 in PBMac, Western blot. Particulars: B22EES1-8-3 140 μM for 24 h, then 10 ng/mL LPS for 15 min. Here is the method:
(§1) FIGS. 6A-6C show the effects of B22EES1-8-3 on LPS-induced phosphorylation (phospho-) of ERK1/2 and p38 MAP kinases, and nuclear translocation of NF-κB p65. PBMac were incubated with B22EES1-8-3 (140 μM) for 24 h prior to the addition of 10 ng/mL LPS for an additional 15 min. Cytoplasmic (A, B) and nuclear (C) proteins were harvested for Western Blotting: (A) Cytoplasmic proteins: phospho-ERK1/2 and total ERK1/2. (B) Cytoplasmic proteins: phospho-p38 and total p38 kinase. (C) Nuclear proteins: upper panel, NF-κB p65 and lamin B; lower panel, the intensity of corresponding lanes in the gel photograph of NF-κB p65 was shown. The results shown are representative of at least three independent experiments, with cells obtained from different donors. * P<0.05, compared with the corresponding control. […]
(§2) Whole cell lysate (20 μg) or nuclear protein (2 μg) were separated by sodium dodecyl sulfate polyacrylamide gel electrophoresis (SDS-PAGE) and transferred to nitrocellulose membranes for probing overnight with the respective antibodies specific for the phosphorylated or total form of ERK1/2 and p38 MAPK (Cell Signaling Technology, Beverly, Mass.), NF-κB p65 protein and lamin B (Santa Cruz Biotechnology, Santa Cruz, Calif.). […] In order to quantify the results from the Western blots, the gels were scanned and the intensity of the bands was analyzed by a computer program Quantity One from BioRad. […]
Background: Immunoblotting shows a protein as a band on a membrane.

A further test deals with p38 MAPK. In words: LPS-induced phosphorylation of p38 MAPK in PBMac, Western blot. Particulars: B22EES1-8-3 140 μM for 24 h, then 10 ng/mL LPS for 15 min. Here is the method: as §1, §2
For another test, the system named is NF-κB p65. In words: LPS-induced nuclear translocation of NF-κB p65 in PBMac, Western blot of nuclear proteins. Particulars: B22EES1-8-3 140 μM for 24 h, then 10 ng/mL LPS for 15 min, nuclear fraction. The protocol: as §1, §2

Take `COc1ccc(/C=C/C(=O)OCC(=O)Cc2ccc(O)c(O)c2)cc1O` [B8-3]: the “inhibition of LPS-induced TNF-α protein production” value came out at 47±19% with TNF-α (PBMac, then LPS 1 ng/mL for 24 hr) and 58±30% in the test on TNF-α (PBMac, then LPS 10 ng/mL for 24 hr). Further, the “amelioration of LPS-upregulated TNF-α production” value in the test on TNF-α (summary statement, FIG. 5A, LPS concentration not stated) is reported as “over 50%”. Further, the “effect on LPS-induced phosphorylation of ERK1/2” value with ERK1/2 was “suppressed”. Moreover, in the test on p38 MAPK, the “effect on LPS-induced phosphorylation of p38 MAPK” value is “not p38 MAPK induced by LPS was suppressed”. Also, the “effect on nuclear translocation of NF-κB p65” value in the test with NF-κB p65 is recorded as “reduced the amount of p65NF-kB in the nuclear fraction”.

Consider `C[C@@H]1C[C@H]2[C@@H]3CCC4=CC(=O)C=C[C@]4(C)[C@@]3(F)[C@@H](O)C[C@]2(C)[C@@]1(O)C(=O)CO` [dexamethasone, reference compound], for which the inhibition (as a rule, how much of the control response was suppressed) at 1.3 µM in the test on TNF-α (Homo sapiens, Macrophage, PBMac, dexamethasone 1.3 μM for 24 hr, then LPS (1 and 10 ng/mL used) for 24 hr) amounted to 32 ± 7.5%. In the test with TNF-α (Homo sapiens, Macrophage, PBMac, dexamethasone 5.1 μM for 24 hr, then LPS (1 and 10 ng/mL used) for 24 hr), the inhibition at 5.1 µM was 25 ± 6.3%.
